The record followed here is patent publication US20150079183A1, “Lercanidipine Hydrochloride and Losartan Potassium Compound Preparation and Preparation Method Thereof” (Zhaoke Pharmaceutical (Hefei) Company Limited, priority 2012, published 2015).

For data set [1], the system named is patients with light and moderate diastolic hypertension. In words: Clinical trial study of Example 5 (compound preparation 5 mg lercanidipine + 20 mg losartan vs single drugs and amlodipine). As to conditions: for Diastolic blood pressure Value changed / Systolic blood pressure Value changed: before treatment vs end of week 12; for Diastolic blood pressure Before dosing / Systolic blood pressure Before dosing: before treatment, mean ± SD; for Diastolic blood pressure After dosing / Systolic blood pressure After dosing: once daily. The data set is classed as in vivo, human. The method, then: After 14-20 days of washing stage, entering 14-30 days of introduction stage, during which single blinded placebos were taken. Blood pressures were measured in a return visit in every 7-10 days. Suitable patients were divided into treatment groups according to random principle.
1.3 Observation indicators and method: blood, pressures were measured as per the requirements of international standard. A settled physician would follow up once a week and visited from 9:00 to 11:00. Every time heart rate and sitting blood pressure were measured 3 times and the 2 greater values were taken to calculate the mean value.
(§1) 1.4 Laboratory examinations: electrocardiogram, blood and urine routine, liver and kidney function, blood sugar, blood lipid and blood electrolyte examinations were performed before and after overall patient trial.
(§2) 1.6 Data processing and statistical method: the measurement data were calculated as mean±standard variation. Paired t-test was used to compare the quantitative indicators before and after the 4 treatment patterns. Chi-square test was used to compare the difference before and after administration.

For data set [2] the test system is unchanged. As to the kind of experiment: Clinical trial study of Example 6 (compound preparation 7.5 mg lercanidipine + 20 mg losartan vs single drugs). Particulars: for Diastolic blood pressure Value changed / Systolic blood pressure Value changed: before treatment vs end of week 12; for Diastolic blood pressure Before dosing / Systolic blood pressure Before dosing: before treatment, mean ± SD. The format is in vivo, human.
Source text: 1.1 Selection of cases: patients aged from 18-75 years old with light and moderate diastolic hypertension (supine diastolic blood pressure 95-115 mmHg), excluding severe hypertension (diastolic blood pressure >115 mmHg), secondary hypertension, heart disease, myocardial infarction, shock, transient ischemic stroke within the past 3 months, sinus bradycardia or sinus tachycardia, hypovolemia, liver and kidney dysfunction and diabetes. After 14-20 days of washing stage, entering 14-30 days of introduction stage, during which single blinded placebos were taken. Blood pressures were measured in a return visit in every 7-10 days. Suitable patients were divided into treatment groups according to random principle.
1.2 Trial method: there were totally 359 patients enrolled, and 305 patients entered the introduction stage and 266 entered the assessment stage.
1.3 Observation indicators and method: blood pressures were measured as per the requirements of international standard. A settled physician would follow up once a week and visited from 9:00 to 11:00. Every time heart rate and sitting blood pressure were measured 3 times and the 2 greater values were taken to calculate the mean value.
as §1
1.5 Curative effect assessment: according to the regulations of The National Cardiovascular Epidemiology and Population Prevention report meeting summary in 1979: (1) markedly effective: diastolic blood pressure was decreased by ≧10 mmHg, and was decreased to normal (<90 mmHg) or decreased by more than 20 mmHg; (2) effective: diastolic blood pressure was decreased by 10-19 mmHg or was decreased by <10 mmHg, but reached normal; (3) failure: not reached above criteria.
as §2

Where a name gives a salt, the structure may show the parent alone.

On to `COC(=O)C1=C(C)NC(C)=C(C(=O)OC(C)(C)CN(C)CCC(c2ccccc2)c2ccccc2)C1c1cccc([N+](=O)[O-])c1` (stereo not shown) [lercanidipine hydrochloride], for which the “cases occurring gastrointestinal tract symptoms” value is recorded as “two” in data set [1] (12 weeks of treatment) and “one” in data set [2] (12 weeks of treatment). In addition, the cases of dizziness entry in data set [1] (12 weeks of treatment) and in data set [2] (12 weeks of treatment) was “one” throughout. The “Diastolic blood pressure Value changed” value in data set [1] is reported as 13 ± 8 mmHg; in data set [2] it was 16 ± 6 mmHg. The “Systolic blood pressure Value changed” value in data set [1] worked out at 19 ± 3 mmHg; in data set [2], 19 ± 7 mmHg. Further, the “Diastolic blood pressure Before dosing” value in data set [1] came to 104 ± 9 mmHg; in data set [2] it was 106 ± 8 mmHg. Further, the “Systolic blood pressure Before dosing” value is on record as 152 ± 9 mmHg in data set [1] and 156 ± 8 mmHg in data set [2]. Besides, the results for the “Diastolic blood pressure After dosing” value in data set [1] (end of week 12 of treatment) and in data set [2] (end of week 12 of treatment) were 88 ± 7 mmHg and 89 ± 7 mmHg, respectively. The figures for the “Systolic blood pressure After dosing” value in data set [1] (end of week 12 of treatment) and in data set [2] (end of week 12 of treatment) were 139 ± 8 mmHg and 136 ± 7 mmHg, respectively. Besides, the “Effective rate (total effective rate for decreasing blood pressure)” value in data set [1] (end of week 12 of treatment, criteria of b72, hydrochloride) was found to be 70.8%; in data set [1] (end of week 12 of treatment; criteria of b72; listed as 2), hydrochloride) it was 70.8%; in data set [2] (end of week 12 of treatment, criteria of b91, hydrochloride), 71.6%; in data set [2] (end of week 12 of treatment; criteria of b91; listed as 2), hydrochloride), 71.6%.

As for `CCCCc1nc(Cl)c(CO)n1Cc1ccc(-c2ccccc2-c2nn[nH]n2)cc1` [losartan], the “cases occurring gastrointestinal tract symptoms” value in data set [1] (12 weeks of treatment) is listed as “four”; in data set [2] (12 weeks of treatment), “two”. Also, the “cases of dry mouth” value in data set [1] (12 weeks of treatment) and in data set [2] (12 weeks of treatment) was “one” each time. For the same compound, the “Diastolic blood pressure Value changed” value came out at 11 ± 5 mmHg in data set [1] and 14 ± 5 mmHg in data set [2]. Also, the entries for the “Systolic blood pressure Value changed” value in data set [1] and in data set [2] were 15 ± 9 mmHg and 17 ± 5 mmHg, respectively. For the same compound, the “Diastolic blood pressure Before dosing” value in data set [1] was found to be 100 ± 5 mmHg; in data set [2] it was 102 ± 6 mmHg. Further, the “Systolic blood pressure Before dosing” value in data set [1] was found to be 152 ± 9 mmHg; in data set [2], 152 ± 7 mmHg. The “Diastolic blood pressure After dosing” value in data set [1] (end of week 12 of treatment) stood at 81 ± 9 mmHg; in data set [2] (end of week 12 of treatment), 83 ± 8 mmHg. The “Systolic blood pressure After dosing” value is 138 ± 6 mmHg in data set [1] (end of week 12 of treatment) and 139 ± 5 mmHg in data set [2] (end of week 12 of treatment). Further, the “Effective rate (total effective rate for decreasing blood pressure)” value in data set [1] (end of week 12 of treatment; criteria of b72; listed as 3)) worked out at 75.1%; in data set [1] (end of week 12 of treatment, criteria of b72, listed as lorsartan) it was 75.1%; in data set [2] (end of week 12 of treatment; criteria of b91; listed as 3)), 77.3%; in data set [2] (end of week 12 of treatment, criteria of b91, listed as lorsartan), 77.3%.
